# Assay results: US10125123B2, “Small molecule IRE1-α inhibitors” (Cornell University, priority 2016, dated 2018)
# Tests used:
# [1] = target: IRE1α kinase and endoribonuclease domains (Homo sapiens, UniProt O75460); settings: cited from earlier work
# IRE1α = target: T1, IRE1α (Homo sapiens, UniProt O75460); assay: In vitro FRET assay (XBP1 RNA probe cleavage by IRE1α); settings: biochemical FRET assay, 2 nM IRE1α
# T1 construct: purchased SignalChem
# Procedure: In vitro FRET assay was performed to evaluate the ability of select compounds to inhibit IRE1, the results of which are summarized in the following table.
# To perform the in vitro FRET assay, 1× complete assay buffer (CAB; […], 50 mM sodium citrate pH 7.15, 1 mM magnesium acetate, 0.02% Tween 20) was used to dilute SignalChem IRE1α in protein to a final concentration of 2 nM. Selected compounds were serially diluted with DMSO in a non-binding black 384-well plate for a total of 15 μl in each well. 2 μl of the serially diluted compound or DMSO control were then added to new wells containing 98 μl of 1×CAB, for a total volume of 100 μl, 10 μl of which were then transferred to wells of a new plate. 5 μl of the diluted IRE1α was then added to each well. 5 μl of a […] XBP1 RNA probe was then added to each well. Fluorescence was then read over 30 minutes in kinetic mode (485/515 nm). Two RNA probes were used, XBP1 wildtype (CAUGUCCGCAGCACAUG; SEQ ID NO: 1) which is able to be spliced by active IRE1α or XBP1 mutant (CAUGUCCCCAGCACAUG; SEQ ID NO: 2) which is unable to be spliced. Each probe contained a 5′ 6-FAM modification and a 3′ IOWA Black FQ modification. […]
# myeloid dendritic cells = assay: Lipid accumulation in dendritic cells exposed to ovarian cancer ascites supernatants (BODIPY 493/503 staining, flow cytometry); type: cell-based, mouse
# Source text: FIG. 1D is flow cytometry analysis of lipid accumulation in mouse bone marrow-derived dendritic cells exposed to the indicated treatments, measured by BODIPY 493/503 staining intensity.
# T1 sequence (O75460 19-977): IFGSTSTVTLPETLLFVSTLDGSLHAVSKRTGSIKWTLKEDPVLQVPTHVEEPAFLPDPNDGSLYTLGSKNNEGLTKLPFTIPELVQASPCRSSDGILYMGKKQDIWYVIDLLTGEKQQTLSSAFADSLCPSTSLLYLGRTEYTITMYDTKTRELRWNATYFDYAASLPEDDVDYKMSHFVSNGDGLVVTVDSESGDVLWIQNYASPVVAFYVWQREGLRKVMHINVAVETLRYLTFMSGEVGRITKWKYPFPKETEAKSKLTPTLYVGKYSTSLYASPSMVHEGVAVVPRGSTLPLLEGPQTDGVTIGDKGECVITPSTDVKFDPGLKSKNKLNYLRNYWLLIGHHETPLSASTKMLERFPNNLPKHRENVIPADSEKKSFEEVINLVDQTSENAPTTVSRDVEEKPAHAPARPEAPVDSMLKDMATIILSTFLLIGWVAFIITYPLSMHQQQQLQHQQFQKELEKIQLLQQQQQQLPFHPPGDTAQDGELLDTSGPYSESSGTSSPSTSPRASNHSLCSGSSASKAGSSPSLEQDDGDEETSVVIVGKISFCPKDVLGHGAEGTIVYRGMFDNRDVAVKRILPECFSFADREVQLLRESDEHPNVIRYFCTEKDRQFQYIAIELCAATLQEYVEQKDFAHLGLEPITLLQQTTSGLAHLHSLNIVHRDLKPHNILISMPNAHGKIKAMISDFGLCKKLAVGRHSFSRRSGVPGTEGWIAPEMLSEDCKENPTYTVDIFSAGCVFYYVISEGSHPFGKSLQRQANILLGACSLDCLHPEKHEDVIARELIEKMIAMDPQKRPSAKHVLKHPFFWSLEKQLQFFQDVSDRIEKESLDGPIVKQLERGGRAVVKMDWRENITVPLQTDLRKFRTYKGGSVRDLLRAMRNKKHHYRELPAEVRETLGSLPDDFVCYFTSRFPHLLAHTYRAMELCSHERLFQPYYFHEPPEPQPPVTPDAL
# Sequence of IRE1α kinase and endoribonuclease domains (O75460 19-977): as above
Compound,EC50 (IRE1α) [µM],other results
"CC(C)n1nc(-c2ccc(NC(=O)Nc3cccc(C(F)(F)F)c3)cc2)c2c(N)ncnc21 [SRC inhibitor, 1-(4-(4-Amino-1-isopropyl-1H-pyrazolo[3,4-d]pyrimidin-3-yl)phenyl)-3-(3-(trifluoromethyl)phenyl)urea]",,inhibition of IRE1α kinase and endoribonuclease domains [1]: inhibits
"CN1CCN(Cc2ccc(NC(=O)Nc3cc(-c4ccc5nc(C(F)F)[nH]c(=O)c5c4)n(C)n3)cc2C(F)(F)F)CC1 [Compound 8, 1-(5-(2-(difluoromethyl)-4-oxo-3,4-dihydroquinazolin-6-yl)-1-methyl-1H-pyrazol-3-yl)-3-(4-((4-methylpiperazin-1-yl)methyl)-3-(trifluoromethyl)phenyl)urea]",≤ 5,
"CN1CCN(Cc2ccc(NC(=O)Cc3cc(-c4ccc5cc(N)ncc5c4)n(C)n3)cc2C(F)(F)F)CC1 [Compound 32, 2-(5-(3-aminoisoquinolin-7-yl)-1-methyl-1H-pyrazol-3-yl)-N-(4-((4-methylpiperazin-1-yl)methyl)-3-(trifluoromethyl)phenyl)acetamide]",> 100,
"CN1CCN(Cc2ccc(NC(=O)Nc3cc(-c4ccc5ccncc5c4)n(C)n3)cc2C(F)(F)F)CC1 [Compound 24, 1-(5-(isoquinolin-7-yl)-1-methyl-1H-pyrazol-3-yl)-3-(4-((4-methylpiperazin-1-yl)methyl)-3-(trifluoromethyl)phenyl)urea]",≤ 5,
"CN1CCN(Cc2ccc(NC(=O)Nc3nn(C)c4cc(-c5cnc(N)nc5)ccc34)cc2C(F)(F)F)CC1 [Compound 9, 1-(6-(2-aminopyrimidin-5-yl)-1-methyl-1H-indazol-3-yl)-3-(4-((4-methylpiperazin-1-yl)methyl)-3-(trifluoromethyl)phenyl)urea]",≤ 5,
"CC1CCCCN1Cc1ccc(NC(=O)Nc2cc(-c3ccc4ccncc4c3)n(C)n2)cc1C(F)(F)F (stereo not drawn) [Compound 43, 1-(5-(isoquinolin-7-yl)-1-methyl-1H-pyrazol-3-yl)-3-(4-((2-methylpiperidin-1-yl)methyl)-3-(trifluoromethyl)phenyl)urea]",> 100,
"CN1CCN(Cc2ccc(NC(=O)Nc3nn(C)c4cc(-c5cnc(N)cn5)ccc34)cc2C(F)(F)F)CC1 [Compound 10, 1-(6-(5-aminopyrazin-2-yl)-1-methyl-1H-indazol-3-yl)-3-(4-((4-methylpiperazin-1-yl)methyl)-3-(trifluoromethyl)phenyl)urea]",5 to 50,
vitamin E,,pathological intracellular lipid accumulation (myeloid dendritic cells): suppressed

# Second part, led by results:
EC50 (IRE1α) [µM],Compound,other results
≤ 5,"CN1CCN(Cc2ccc(Nc3c(Nc4cc(-c5ccc6ccncc6c5)n(C)n4)c(=O)c3=O)cc2)CC1 [Compound 74, 3-((5-(isoquinolin-7-yl)-1-methyl-1H-pyrazol-3-yl)amino)-4-((4-((4-methylpiperazin-1-yl)methyl)phenyl)amino)cyclo-but-3-ene-1,2-dione]",
50 to 100,"Cn1nc(NS(=O)(=O)c2cccc(C(F)(F)F)c2)cc1-c1ccc2ccncc2c1 [Compound 72, N-(5-(isoquinolin-7-yl)-1-methyl-1H-pyrazol-3-yl)-3-(trifluoromethyl)benzene-sulfonamide]",
5 to 50,"O=C(Nc1ccc2oc(-c3cccnc3)nc2c1)[C@H]1C[C@H]1c1ccccc1 [Compound 59, (1S,2R)-2-phenyl-N-(2-(pyridin-3-yl)benzo[d]oxazol-5-yl)cyclopropane-1-carboxamide]",
5 to 50,"CN1CCN(Cc2ccc(CC(=O)Nc3cc(-c4ccc5cc(N)ncc5c4)n(C)n3)cc2C(F)(F)F)CC1 [Compound 51, N-(5-(3-aminoisoquinolin-7-yl)-1-methyl-1H-pyrazol-3-yl)-2-(4-((4-methylpiperazin-1-yl)methyl)-3-(trifluoromethyl)phenyl)acetamide]",
> 100,"CN1CCN(Cc2ccc(NC(=O)Nc3cc(-c4ccc5ccncc5c4)n(C)n3)cc2)CC1 [Compound 47, 1-(5-(isoquinolin-7-yl)-1-methyl-1H-pyrazol-3-yl)-3-(4-((4-methylpiperazin-1-yl)methyl)phenyl)urea]",
> 100,CN1CCN(Cc2ccc(NC(=O)Nc3cc(-c4ccc(-c5cccc6nccnc56)cc4)n(C)n3)cc2C(F)(F)F)CC1 [Compound 53],
> 100,"Cn1nc(NC(=O)c2ccccc2)cc1-c1ccc2cc(N)ncc2c1 [Compound 67, N-(5-(3-aminoisoquinolin-7-yl)-1-methyl-1H-pyrazol-3-yl)benzamide]",
